In article PMC10739871, “Structural insights into the regulation, ligand recognition, and oligomerization of bacterial STING” (Nature Communications, 2023):
Where “and” joins values, the source holds several entries; their conditions need not be identical. Equal values may be shown once.

Assays:
MyTIR-STING = test: NAD+ cleavage activity assay, MyTIR-STING (control); assay type: biochemical; settings: 1 μM cGG
Description: The NAD^+ cleavage activity of the N-terminal TIR domain of full-length TIR-STING proteins were accessed using the previously described protocol. Briefly, 100 μl reaction mixture containing ligand (cGG or cAA) at the indicated concentration and 500 μM ε-NAD (Product No. N2630, Sigma-Aldrich) in the assay buffer (20 mM HEPES pH 7.5, 100 mM KCl) was pre-incubated at room temperature. Tested TIR-STING protein (0.5–1 μM) was then added to start the reaction. The fluorescence signal was continuously monitored for 1 hour at an emission wavelength of 410 nm with excitation at 300 nm using Synergy H1 microplate reader (BioTek). The changes of relative fluorescence units at different time points were recorded.

RiSTING [1] = test: Dynamic light scattering of RiSTING with or without cGG; design: species or system Riemerella anatipestifer; settings: two molar excesses of cGG; 84% of particles; 9.0 nm without cGG
Description: The DLS experiments were performed using Zetasizer Nano ZS90 (Malvern instruments). Briefly, protein samples containing 1 mg/ml RiSTING in the presence or absence of 2-fold molar excess of cGG were prepared and degassed. Polydispersity index (PDI) and globule size were examined at 25 °C.

RiSTING [2] = test: ITC binding of cGG to RiSTING; design: species or system Riemerella anatipestifer
Description: ITC experiments were performed at 25 °C using nano-ITC (TA Instruments). Purified RiSTING and ElSTING were exchanged into assay buffer containing 20 mM Tris pH 8.0, 150 mM NaCl. 10 mM stock of cGG (Item No. 17144, Cayman Chemical) and cAA (Item No. 17753, Cayman Chemical) were prepared by dissolving in the same buffer. 20 injections of ligand (0.9-1.2 mM) were sequentially titrated to tested STING protein solution (30-100 μM) with a stirring speed of 300 rpm. Data were fit to “independent” model to derive ΔH, ΔS, and Kd values using NanoAnalyze v3.12.5 (TA Instruments).

[3] = target: oligomerization mutant ElTIR-STING^D175R,S179R (Epilithonimonas lactis DSM 19921); test: SEC; gel-filtration analysis of full-length ElTIR-STING in the presence of cAA at 2-fold molar excess
[4] = target: oligomerization mutant ElTIR-STING^D175R,S179R (Epilithonimonas lactis DSM 19921); test: SEC; gel-filtration analysis of full-length ElTIR-STING in the absence of cAA

Row | Compound | ΔRFU after 10 mins, Average (MyTIR-STING; n = 3) [RFU] | ΔRFU after 10 mins (single replicates) (MyTIR-STING; positive control) | major particle size of RiSTING (RiSTING [1]) [nm] | binding affinity (in words) (RiSTING [2]) | Kd (RiSTING [2]; 25 °C, 20 mM Tris pH 8.0, 150 mM NaCl, read-out: dissociation constant (Kd)) [nM] | stoichiometry N [3] | stoichiometry N [4]
1 | Nc1nc2c(ncn2[C@@H]2O[C@@H]3COP(=O)(O)O[C@H]4[C@@H](O)[C@H](n5cnc6c(=O)[nH]c(N)nc65)O[C@@H]4COP(=O)(O)O[C@H]3[C@H]2O)c(=O)[nH]1 [cGG, 3′3′-cyclic di-GMP] | 31574 | 32209 RFU and 31707 RFU and 30806 RFU | 40.6 | nanomolar affinity | 0.1 |  | 
2 | oligomerization mutant ElTIR-STING^D175R,S179R (natural protein) |  |  |  |  |  | 6 and 2 | 6 and 2
